For the assay, the system named is U-937/GTB. The assay is described as follows: Cytotoxicity against human U937/GTB cells after 72 hrs by fluorometric microculture cytotoxicity assay. The format is functional, cell-based.

SMILES strings stand for the structures.

What is called IC50 is the point on the concentration scale where inhibition reaches its midpoint. As to `COc1cccc2c1C(=O)c1c(O)c3c(c(O)c1C2=O)C[C@@](O)(C(=O)CO)C[C@@H]3O[C@H]1C[C@H](N)[C@H](O)[C@H](C)O1` [DOXORUBICIN], inhibition was half-maximal at 160 nM (IC50). With `CC[C@H](C)[C@@H]1NC(=O)[C@@H]2CCCN2C(=O)[C@H](Cc2c[nH]c3ccccc23)NC(=O)[C@H](CO)NC(=O)[C@@H]2CSSC[C@@H]3NC(=O)[C@H]([C@@H](C)O)NC(=O)[C@H](CCC(=O)O)NC(=O)CNC(=O)[C@@H]4CSSC[C@H](NC(=O)CNC(=O)[C@@H]5CCCN5C(=O)[C@H]([C@@H](C)O)NC(=O)[C@H](CC(N)=O)NC(=O)[C@H](CSSC[C@H](NC1=O)C(=O)N[C@@H]([C@@H](C)O)C(=O)N[C@@H](CCCNC(=N)N)C(=O)N[C@@H](CC(N)=O)C(=O)NCC(=O)N[C@@H](CC(C)C)C(=O)N1CCC[C@H]1C(=O)N[C@@H](C(C)C)C(=O)N4)NC(=O)[C@H]([C@@H](C)O)NC(=O)CNC(=O)CNC(=O)[C@H](C)NC3=O)C(=O)N[C@@H](CO)C(=O)N2` the figure was 7600 nM. In turn, `CC(C)C[C@@H]1NC(=O)CNC(=O)[C@H](CC(N)=O)NC(=O)[C@H](CCCNC(=N)N)NC(=O)[C@H]([C@@H](C)O)NC(=O)[C@@H]2CSSC[C@@H]3NC(=O)[C@H]([C@@H](C)O)NC(=O)CNC(=O)CNC(=O)[C@H](Cc4ccccc4)NC(=O)[C@@H]4CSSC[C@H](NC(=O)[C@H]([C@@H](C)O)NC(=O)[C@H](CSSC[C@H](NC(=O)[C@H](C(C)C)NC(=O)[C@@H]5CCCN5C1=O)C(=O)NCC(=O)N[C@@H](CCC(=O)O)C(=O)N[C@H]([C@@H](C)O)CN4)NC(=O)CNC(=O)[C@@H]1CCCN1C(=O)[C@H]([C@@H](C)O)NC(=O)[C@H](CC(N)=O)NC3=O)C(=O)N[C@@H](CC(=O)O)C(=O)N1CCC[C@H]1C(=O)N[C@@H](Cc1c[nH]c3ccccc13)C(=O)N1CCC[C@H]1C(=O)N[C@@H](C(C)C)C(=O)N2` yielded an IC50 of 2600 nM.

For the origin of these results see ChEMBL document CHEMBL2040805, “Cyclotides from an extreme habitat: characterization of cyclic peptides from Viola abyssinica of the Ethiopian highlands” (J Nat Prod, 2011).
